This note sets out measurements from patent publication US7625917B2, “Thiolesters and uses thereof” (priority 1998, dated 2009).

Data set [1] has as its target T1, recombinant HIV-1 protease (Human immunodeficiency virus type 1 group M subtype B, UniProt P03366).
T1 construct: recombinant HIV-1 protease
In words: HIV-1 protease substrate cleavage (HPLC) assay. The data set is classed as biochemical. The method, then:
(§1) The 5-bromovaleroyl thioester, compound 44, and two 5-pyridiniovaleroyl thioesters, compounds 45and 47, were analyzed in mechanistic and target-based assays. […] Assays for activity against HIV-1 reverse transcriptase rAdT (template/primer) and rCdG (template/primer) using recombinant HIV-1 reverse transcriptase (S. Hughes, ABL Basic Research NCI-FCRDC, Frederick Md.) were performed as described by Rice (1997) supra. Substrate cleavage of recombinant HIV-1 protease in the presence of test compounds using an HPLC-based methodology with the artificial substrate Ala-Ser-Glu-Asn-Try-Pro-Ile-Val-amide (Multiple Peptide Systems, San Diego Calif.) was performed as described by Rice (1997) supra. The ability of recombinant HIV-1 integrase (S. Hughes, ABL Basic Research NCI-FCRDC, Frederick Md.) to carry out 3′ processing and strand transfer activities in the presence of test compounds was performed as described by Buckheit (1994) AIDS Res. Hum. Retroviruses 10:1497-1506, and Turpin (1998) Antimicrob. Agents Chemother. 42: 487-494.

The target of the next data set is T2, Sp1 (Homo sapiens, UniProt P08047).
T2 construct: treatment of K562 cell nuclear extracts with the compounds; host or cells: K562 cell nuclear extracts
The experiment in a line: Sp1 super gel shift EMSA (K562 cell nuclear extracts). The data set is classed as biochemical. The conditions noted are these: specificity for CCHC vs CCHH zinc finger. The method, then: To determine if compound 44, 45 or 47 binding activity was specific for CCHC zinc fingers, a super gel shift EMSA after treatment of K562 cell nuclear extracts with the compounds was performed. This was followed by super shifting with Sp1-specific antibody. Sp1 was chosen because it is a cellular transcription factor that contains three copies of a classical type CCHH zinc finger motif that are required for Sp1 binding to its DNA target. […] Super gel shifting to determine the specificity of zinc finger reactive compounds was carried out using an Sp1 consensus oligomer (Stratagene, La Jolla, Calif.), K562 cell nuclear extracts, and antibodies for Sp1 (Sp1[PEP2]-G) (extracts and Sp1 Abs from Santa Cruz Biotechnology, Inc., Santa Cruz, Calif.). The binding reactions of oligonucleotides with K562 nuclear extract, as well as electrophoretic conditions were carried out as described in the Gelshift Buffer Kit, Stratagene , La Jolla, Calif.

Data set [2] concerns the target T3, recombinant HIV-1 reverse transcriptase (Human immunodeficiency virus type 1 group M subtype B, UniProt P03366).
T3 construct: recombinant HIV-1 reverse transcriptase; S. Hughes, ABL Basic Research NCI-FCRDC, Frederick Md
In words: HIV-1 reverse transcriptase assay (rAdT and rCdG template/primer). The data set is classed as biochemical. On the procedure: as §1

A further data set relates to U1 cells. The experiment in a line: Cell viability of TNFα-induced U1 cells. Format: cell-based. On the procedure: (§2) Thiolester compounds were also tested for their ability to. inhibit HIV-1 replication in TNFα-induced U1 and ACH-2 cells. U1 cells were induced with 5 ng/ml of TNFα in the presence of various concentrations of the thiolesters 44, 45 or 47. Forty-eight hours later the cultures were characterized for virus p24 antigen production and cell viability. […] Compound 44 killed 60% of the cells at 200 μM. […] Precursor processing evaluation performed as described by Turpin (1997) Antiviral Chem. Chemother. 8:60-69. Thus, thiolester PATEs initiate intracellular disulfide cross-linking of precursor polyproteins during late phase virus assembly and mediate a direct virucidal effect via an attack on the mature NCp7 retroviral zinc fingers in the cell-free virus.

A further data set concerns the target T4, Pr55gag precursor (Human immunodeficiency virus type 1 group M subtype B, UniProt P03347).
T4 construct: endogenous in cells; host or cells: U1 cells (latently HIV-1 infected), induced with TNFα
The experiment in a line: Gag precursor cross-linking and processing in U1 cells (Western blotting). The data set is classed as cell-based, HIV-1. The conditions noted are these: TNFα-induced U1 cells. The method, then: as §2
Virion cross linking was performed as described by Rice (1995) Science 270:1194-1197 and Turpin (1997) Antiviral Chem. Chemother. 8:60-67. Briefly, highly purified HIV-1MN (11.8 μg total protein) was incubated for 2 hour with concentrations of compound. Virions were concentrated and residual compound was removed by centrifugation (18,000×g, 1 h, 4° C.). The viral pellet was solubilized in 0.5 M Tris-HCl, (pH 6.8), 50% glycerol, 8% SDS and 0.4% bromophenol blue and proteins resolved by Western blotting. Western blotting to detect the expression of HIV-1 proteins in U1 cells or virus pellets for virion cross-linking experiments was carried out as described by Turpin (1996) J. Virol. 70:6180-6189. Briefly, 50 μg of total cellular protein for U1 experiments or the. total virion pellet (11.8 μg total viral protein) for NCp7 cross linking studies was resolved on 4 to 20% polyacrylamide gels in SDS with Tris-Glycine (Novex, San Diego Calif.). Samples for reduced gels were boiled for 5 min in the presence of 5% β-ME prior to loading. Resolved proteins were electroblotted on to polyvinylidene difluoride (PVDF) membranes, and HIV-1 specific proteins were detected using a mixture of goat anti-HIV-1 NCp7 and p24 or anti-NCp7 for virion proteins alone (a kind gift of L. E. Henderson, AIDS Vaccine Program NCI-FCRDC, Frederick, Md.). […]

For the next data set, the system named is HIV-1NL4-3. In words: Virucidal (viral inactivation) assay on MAGI-CCR-5 cells. Format: cell-based. On the procedure:
The cell-based p24 attachment assay was performed as described in Rice (1995) Science 270:1194-1197. Viral inactivation assays were carried out as described in Rice (1995) Science 270:1194-1197, and Turpin (1997) supra, with minor modifications. Briefly, MAGI-CCR-5 cells were plated (4×10^4 cells per well) in flat bottomed 2-cm well plates for 24 h, after which the culture media was removed and compound-treated virus was added. The virus used was obtained by transient transfection of pNL4-3 into HeLa cells yielding the replication competent NL4-3 virus. Virus containing supernatants were treated for 2 h at 37° C. after which residual compound was removed by centrifugation (18,000×g, 1 h, 4° C.). Virus pellets were resuspended and placed on the MAGI-CCR-5 monolayers and cultured for 48 h. Monolayers were fixed and stained with X-gal solution and blue cells counted.
NCp7 cross-linking is associated with viral inactivation. Whether the ability to crosslink the nucleocapsid protein, as determined by Western blotting, correlated with the ability to inactivate the viruses was tested in a virucidal assay. Virus stocks of HIV-1NL4-3 were incubated with various thiolester compounds. The virus was obtained by transient transfection of a replication-competent pNL4-3 plasmid into HeLa cells. Residual thiolester was removed by centrifugation. […]

Where two headings read alike, the source gives them in different places.

T2 sequence (P08047 whole entry): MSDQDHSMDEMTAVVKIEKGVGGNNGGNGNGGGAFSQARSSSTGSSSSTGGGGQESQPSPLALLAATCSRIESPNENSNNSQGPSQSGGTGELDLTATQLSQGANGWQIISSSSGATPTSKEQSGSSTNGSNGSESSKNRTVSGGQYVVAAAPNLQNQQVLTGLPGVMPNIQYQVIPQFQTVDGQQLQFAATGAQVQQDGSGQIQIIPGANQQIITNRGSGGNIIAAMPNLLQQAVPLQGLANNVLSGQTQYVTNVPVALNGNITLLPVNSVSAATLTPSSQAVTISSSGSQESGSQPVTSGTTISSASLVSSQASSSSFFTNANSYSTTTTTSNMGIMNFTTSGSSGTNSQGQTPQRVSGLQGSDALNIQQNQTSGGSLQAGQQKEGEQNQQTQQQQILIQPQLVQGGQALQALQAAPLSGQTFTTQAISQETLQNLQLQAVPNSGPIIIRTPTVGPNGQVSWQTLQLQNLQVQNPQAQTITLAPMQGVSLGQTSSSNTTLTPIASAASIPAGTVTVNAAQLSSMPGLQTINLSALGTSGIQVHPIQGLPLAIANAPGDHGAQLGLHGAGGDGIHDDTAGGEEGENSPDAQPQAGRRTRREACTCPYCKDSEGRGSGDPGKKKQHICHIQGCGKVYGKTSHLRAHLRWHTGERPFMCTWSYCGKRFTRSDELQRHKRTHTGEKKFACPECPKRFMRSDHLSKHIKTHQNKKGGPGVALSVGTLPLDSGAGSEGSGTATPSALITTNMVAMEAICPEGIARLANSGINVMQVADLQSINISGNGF

On to `CC(=O)NS(=O)(=O)c1ccc(NC(=O)c2ccccc2SC(=O)CCCCBr)cc1` [Compound 44, N-[2-(5-bromovaleroylthio)benzoyl]sulfacetamide], for which the “inhibition of HIV-1 protease (in words)” value in data set [1] was “did not inhibit”. In addition, the “effect on super shifting of Sp1 bound to its DNA target” value (from here on “effect on super shifting of Sp1 bound”) at Sp1 is on record as “failed to alter the pattern of super shifting of Sp1”. Moreover, in data set [2], the “inhibition of HIV-1 reverse transcriptase (in words)” value is reported as “did not inhibit”. In the data set with U1 cells (U1 cells, at 200 μM), the cells killed was 60%. Also, in the data set with U1 cells (high test dose of 100 μM), the “cellular toxicity in U1 cells” value is listed as “No cellular toxicity”. Also, the “cross-linking and processing of viral precursor polyproteins (in words)” value (from here on “cross-linking and processing”) at Pr55gag precursor is listed as “induced β-ME reversible alterations in the mobility of zinc finger containing HIV-1 precursor proteins at a intermediate level”.

For the compound `CC(=O)NS(=O)(=O)c1ccc(NC(=O)c2ccccc2SC(=O)CCCC[n+]2ccccc2)cc1` [Compound 45, N-[2-(5-pyridinio-valeroylthio)benzoyl]sulfacetamide bromide], the “inhibition of HIV-1 protease (in words)” value in data set [1] is listed as “did not inhibit”. Moreover, the “effect on super shifting of Sp1 bound” value at Sp1 is “failed to alter the pattern of super shifting of Sp1”. In addition, in data set [2], the “inhibition of HIV-1 reverse transcriptase (in words)” value is “did not inhibit”. The “cellular toxicity in U1 cells” value is reported as “No cellular toxicity” in the data set on U1 cells (high test dose of 100 μM) and “no toxicity” with U1 cells (higher dose testing (300 μM)). Further, the “cross-linking and processing” value at Pr55gag precursor is “induced cross-linking of viral precursor polyproteins and prevented processing of those precursors”.

Regarding `O=C(CCCC[n+]1ccccc1)Sc1ccccc1C(=O)Nc1ccc(S(=O)(=O)c2ccc([N+](=O)[O-])cc2)cc1` [Compound 47], the IC50 in data set [1] was greater than 100 µM; in data set [2], greater than 100 µM; in data set [2] (read-out: Reverse transcriptase rCdG I50, Table 7, rCdG template/primer, high dose test 100 μM) it was greater than 100 µM. Further, the “inhibition of HIV-1 protease (in words)” value in data set [1] was “did not inhibit”. Further, the “effect on super shifting of Sp1 bound” value on Sp1 is reported as “failed to alter the pattern of super shifting of Sp1”. Also, the “inhibition of HIV-1 reverse transcriptase (in words)” value in data set [2] was “did not inhibit”. For the same compound, the “potency at inactivating virus vs compounds 44 and 45” value in the data set on HIV-1NL4-3 is recorded as “approximately 6 fold”. For the same compound, the results for the “cellular toxicity in U1 cells” value with U1 cells (high test dose of 100 μM) and in the data set with U1 cells (higher dose testing (300 μM)) were “No cellular toxicity” and “no toxicity”, respectively. In addition, the “cross-linking and processing” value at Pr55gag precursor is “induced cross-linking of viral precursor polyproteins and prevented processing of those precursors”.

As to `O=C(O)CCCC[n+]1ccccc1.[Br-]` [Compound 53, 5-pyridiniovaleric acid], the “virucidal activity (in words)” value with HIV-1NL4-3 is reported as “Neither intravirion cross-linkage of NCp7 nor virucidal activity were detected”.
